Experimental data published in PubChem BioAssay AID1963852 (Molecular Pharmacology Branch, DTP, NCI, 2024).

Test system: 282377-053-R-J1-PDC complex spheroid viability
Assay: Anticancer human tumor 282377-053-R-J1-PDC patient-derived colon adenocarcinoma cell line growth inhibition [POLQ]
Details: for IC50: curve of first compound; for viability, T/C: stronger effect = lower value
Method in brief: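 Growth inhibition in 3D: complex spheroids (tumor PDC, HUVEC, MSC) treated with POLQ inhibitor combinations; where Cmax unknown, highest tested concentration 10 microM, except SN-38 at 1 microM.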

[1] = second compound 0.0316 µM, first compound 0.0316 µM
[2] = second compound 0.0316 µM, first compound 0.1 µM
[3] = second compound 0.0316 µM, first compound 0.316 µM
[4] = second compound 0.0316 µM, first compound 1 µM
[5] = second compound 0.1 µM, first compound 0.0316 µM
[6] = second compound 0.1 µM, first compound 0.1 µM
[7] = second compound 0.1 µM, first compound 0.316 µM
[8] = second compound 0.1 µM, first compound 1 µM
[9] = second compound 0.316 µM, first compound 0.0316 µM
[10] = second compound 0.316 µM, first compound 0.1 µM
[11] = second compound 0.316 µM, first compound 0.316 µM
[12] = second compound 0.316 µM, first compound 1 µM
[13] = second compound 1 µM, first compound 0.0316 µM
[14] = second compound 1 µM, first compound 0.1 µM
[15] = second compound 1 µM, first compound 0.316 µM
[16] = second compound 1 µM, first compound 1 µM
[17] = second compound 3.16 µM, first compound 0.0316 µM
[18] = second compound 3.16 µM, first compound 0.1 µM
[19] = second compound 3.16 µM, first compound 0.316 µM
[20] = second compound 3.16 µM, first compound 1 µM
[21] = second compound 10 µM, first compound 0.0316 µM
[22] = second compound 10 µM, first compound 0.1 µM
[23] = second compound 10 µM, first compound 0.316 µM
[24] = second compound 10 µM, first compound 1 µM
[25] = second compound 0.0316 µM, first compound 0.00316 µM
[26] = second compound 0.0316 µM, first compound 0.01 µM
[27] = second compound 0.1 µM, first compound 0.00316 µM
[28] = second compound 0.1 µM, first compound 0.01 µM
[29] = second compound 0.316 µM, first compound 0.00316 µM
[30] = second compound 0.316 µM, first compound 0.01 µM
[31] = second compound 1 µM, first compound 0.00316 µM
[32] = second compound 1 µM, first compound 0.01 µM
[33] = second compound 3.16 µM, first compound 0.00316 µM
[34] = second compound 3.16 µM, first compound 0.01 µM
[35] = second compound 10 µM, first compound 0.00316 µM
[36] = second compound 10 µM, first compound 0.01 µM
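Further: spheroids exposed to compounds for seven days.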
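Wherever viability, T/C is given: 100% = DMSO vehicle control viability.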

**Q.** Which IC50 (second compound 0.0316 µM) does the source give for `CC1COCCN1c1cc(C2(O)CC3CCC(C2)O3)c2cnn(-c3ccn[nH]3)c2n1` (stereo unspecified) + COC1C(OC(N)=O)C(O)C(Oc2ccc3c(O)c(NC(=O)c4ccc(O)c(CC=C(C)C)c4)c(=O)oc3c2C)OC1(C)C here?
**A.** 430 nM

**Q.** What about the IC50 (second compound 0.1 µM) of the same compound?
**A.** 325 nM

**Q.** What about the IC50 (second compound 0.316 µM) of the same compound?
**A.** 506 nM

**Q.** And the IC50 (second compound 1 µM)?
**A.** 485 nM

**Q.** What about the IC50 (second compound 3.16 µM) of the same compound?
**A.** 456 nM

**Q.** And the IC50 (second compound 10 µM)?
**A.** 307 nM

**Q.** What about the viability, T/C [1] of the same compound?
**A.** 112%

**Q.** What about the viability, T/C [2] of the same compound?
**A.** 89.5%

**Q.** And the viability, T/C [3]?
**A.** 53.8%

**Q.** And the viability, T/C [4]?
**A.** 35.9%

**Q.** What about the viability, T/C (second compound 0.0316 µM, first compound 3.16 µM) of the same compound?
**A.** 24.6%

**Q.** What about the viability, T/C (second compound 0.0316 µM, first compound 10 µM) of the same compound?
**A.** 20.8%

**Q.** What about the viability, T/C [5] of the same compound?
**A.** 88.8%

**Q.** And the viability, T/C [6]?
**A.** 92.1%

**Q.** And the viability, T/C [7]?
**A.** 50.4%

**Q.** What about the viability, T/C [8] of the same compound?
**A.** 31.4%

**Q.** And the viability, T/C (second compound 0.1 µM, first compound 3.16 µM)?
**A.** 28.2%

**Q.** What about the viability, T/C (second compound 0.1 µM, first compound 10 µM) of the same compound?
**A.** 18.8%

**Q.** And the viability, T/C [9]?
**A.** 92.8%

**Q.** And the viability, T/C [10]?
**A.** 91.3%

**Q.** And the viability, T/C [11]?
**A.** 60.8%

**Q.** What about the viability, T/C [12] of the same compound?
**A.** 32.9%

**Q.** And the viability, T/C (second compound 0.316 µM, first compound 3.16 µM)?
**A.** 34.8%

**Q.** What about the viability, T/C (second compound 0.316 µM, first compound 10 µM) of the same compound?
**A.** 18.7%

**Q.** And the viability, T/C [13]?
**A.** 92.4%

**Q.** What about the viability, T/C [14] of the same compound?
**A.** 77.2%

**Q.** What about the viability, T/C [15] of the same compound?
**A.** 57.9%

**Q.** And the viability, T/C [16]?
**A.** 36.3%

**Q.** And the viability, T/C (second compound 1 µM, first compound 3.16 µM)?
**A.** 28.4%

**Q.** And the viability, T/C (second compound 1 µM, first compound 10 µM)?
**A.** 19.5%

**Q.** What about the viability, T/C [17] of the same compound?
**A.** 115%

**Q.** And the viability, T/C [18]?
**A.** 74.5%

**Q.** And the viability, T/C [19]?
**A.** 54.8%

**Q.** And the viability, T/C [20]?
**A.** 42%

**Q.** What about the viability, T/C (second compound 3.16 µM, first compound 3.16 µM) of the same compound?
**A.** 33%

**Q.** And the viability, T/C (second compound 3.16 µM, first compound 10 µM)?
**A.** 18.6%

**Q.** And the viability, T/C [21]?
**A.** 101%

**Q.** What about the viability, T/C [22] of the same compound?
**A.** 73.7%

**Q.** And the viability, T/C [23]?
**A.** 47.3%

**Q.** What about the viability, T/C [24] of the same compound?
**A.** 36.4%

**Q.** What about the viability, T/C (second compound 10 µM, first compound 3.16 µM) of the same compound?
**A.** 27.9%

**Q.** What about the viability, T/C (second compound 10 µM, first compound 10 µM) of the same compound?
**A.** 22.6%

**Q.** Which results are given for `CC[C@@]1(O)C(=O)OCc2c1cc1n(c2=O)Cc2cc3c(CN(C)C)c(O)ccc3nc2-1` + Cc1cccc(N(C)C(=O)C2C(O)CCN2c2nc(C)cc(C(F)(F)F)c2C#N)c1?
**A.** IC50 (second compound 0.0316 µM): > 100 nM; IC50 (second compound 0.1 µM): > 100 nM; IC50 (second compound 0.316 µM): > 100 nM; IC50 (second compound 1 µM): > 100 nM; IC50 (second compound 3.16 µM): > 100 nM; IC50 (second compound 10 µM): > 100 nM; viability, T/C (second compound 0.0316 µM, first compound 0.000316 µM): 97.1%; viability, T/C (second compound 0.0316 µM, first compound 0.001 µM): 107%; viability, T/C [25]: 118%; viability, T/C [26]: 111%; viability, T/C [1]: 94.4%; viability, T/C [2]: 76.1%; viability, T/C (second compound 0.1 µM, first compound 0.000316 µM): 98.3%; viability, T/C (second compound 0.1 µM, first compound 0.001 µM): 108%; viability, T/C [27]: 86.1%; viability, T/C [28]: 109%; viability, T/C [5]: 87.6%; viability, T/C [6]: 88%; viability, T/C (second compound 0.316 µM, first compound 0.000316 µM): 90.6%; viability, T/C (second compound 0.316 µM, first compound 0.001 µM): 97.8%; viability, T/C [29]: 101%; viability, T/C [30]: 105%; viability, T/C [9]: 107%; viability, T/C [10]: 77.2%; viability, T/C (second compound 1 µM, first compound 0.000316 µM): 93%; viability, T/C (second compound 1 µM, first compound 0.001 µM): 92.6%; viability, T/C [31]: 124%; viability, T/C [32]: 105%; viability, T/C [13]: 124%; viability, T/C [14]: 71.9%; viability, T/C (second compound 3.16 µM, first compound 0.000316 µM): 97.5%; viability, T/C (second compound 3.16 µM, first compound 0.001 µM): 102%; viability, T/C [33]: 98.5%; viability, T/C [34]: 94.6%; viability, T/C [17]: 101%; viability, T/C [18]: 71%; viability, T/C (second compound 10 µM, first compound 0.000316 µM): 87.5%; viability, T/C (second compound 10 µM, first compound 0.001 µM): 93.9%; viability, T/C [35]: 92.3%; viability, T/C [36]: 81.2%; viability, T/C [21]: 96.2%; viability, T/C [22]: 65.2%

**Q.** With `CCc1c2c(nc3ccc(O)cc13)-c1cc3c(c(=O)n1C2)COC(=O)[C@]3(O)CC` + Cc1cccc(N(C)C(=O)C2C(O)CCN2c2nc(C)cc(C(F)(F)F)c2C#N)c1 as the compound, how does the IC50 (second compound 0.0316 µM) read?
**A.** 50.3 nM

**Q.** What about the IC50 (second compound 0.1 µM) of the same compound?
**A.** 180 nM

**Q.** What about the IC50 (second compound 0.316 µM) of the same compound?
**A.** 71.5 nM

**Q.** And the IC50 (second compound 1 µM)?
**A.** 116 nM

**Q.** And the IC50 (second compound 3.16 µM)?
**A.** 70.2 nM

**Q.** What about the IC50 (second compound 10 µM) of the same compound?
**A.** 57.5 nM

**Q.** And the viability, T/C [25]?
**A.** 122%

**Q.** And the viability, T/C [26]?
**A.** 76.2%

**Q.** What about the viability, T/C [1] of the same compound?
**A.** 51.8%

**Q.** What about the viability, T/C [2] of the same compound?
**A.** 49.2%

**Q.** And the viability, T/C [3]?
**A.** 40.1%

**Q.** What about the viability, T/C [4] of the same compound?
**A.** 23.2%

**Q.** What about the viability, T/C [27] of the same compound?
**A.** 97.1%

**Q.** What about the viability, T/C [28] of the same compound?
**A.** 81.6%

**Q.** What about the viability, T/C [5] of the same compound?
**A.** 72%

**Q.** And the viability, T/C [6]?
**A.** 62.4%

**Q.** What about the viability, T/C [7] of the same compound?
**A.** 41.5%

**Q.** What about the viability, T/C [8] of the same compound?
**A.** 21.8%

**Q.** What about the viability, T/C [29] of the same compound?
**A.** 102%

**Q.** What about the viability, T/C [30] of the same compound?
**A.** 74.9%

**Q.** What about the viability, T/C [9] of the same compound?
**A.** 54.4%

**Q.** And the viability, T/C [10]?
**A.** 52%

**Q.** And the viability, T/C [11]?
**A.** 41.4%

**Q.** What about the viability, T/C [12] of the same compound?
**A.** 25.7%

**Q.** What about the viability, T/C [31] of the same compound?
**A.** 110%

**Q.** What about the viability, T/C [32] of the same compound?
**A.** 86.8%

**Q.** What about the viability, T/C [13] of the same compound?
**A.** 53.5%

**Q.** And the viability, T/C [14]?
**A.** 51.6%

**Q.** And the viability, T/C [15]?
**A.** 44.8%

**Q.** What about the viability, T/C [16] of the same compound?
**A.** 17.2%

**Q.** What about the viability, T/C [33] of the same compound?
**A.** 104%

**Q.** And the viability, T/C [34]?
**A.** 69.3%

**Q.** And the viability, T/C [17]?
**A.** 63.5%

**Q.** What about the viability, T/C [18] of the same compound?
**A.** 44.4%

**Q.** And the viability, T/C [19]?
**A.** 40.8%

**Q.** What about the viability, T/C [20] of the same compound?
**A.** 22.5%

**Q.** And the viability, T/C [35]?
**A.** 106%

**Q.** And the viability, T/C [36]?
**A.** 87.5%

**Q.** What about the viability, T/C [21] of the same compound?
**A.** 49.5%

**Q.** What about the viability, T/C [22] of the same compound?
**A.** 42.5%

**Q.** What about the viability, T/C [23] of the same compound?
**A.** 37.4%

**Q.** And the viability, T/C [24]?
**A.** 16.7%
